smiles,measurement,setting,value
CCCCOc1ccc(C(=O)CCN2CCCCC2)cc1.Cl,solubility (mole fraction),"in DMF, 278.15 K",0.0201
same,solubility (mole fraction),"in DMF, 283.15 K",0.0227
same,solubility (mole fraction),"in DMF, 288.15 K",0.0256
same,solubility (mole fraction),"in DMF, 293.15 K",0.0291
same,solubility (mole fraction),"in DMF, 298.15 K",0.0328
same,solubility (mole fraction),"in DMF, 303.15 K",0.0371
same,solubility (mole fraction),"in DMF, 308.15 K",0.0421
same,solubility (mole fraction),"in DMF, 313.15 K",0.0475
same,solubility (mole fraction),"in DMF, 318.15 K",0.0539
same,solubility (mole fraction),"in DMF, 323.15 K",0.0608
same,solubility (mole fraction),"in THF, 278.15 K",0.00088
same,solubility (mole fraction),"in THF, 283.15 K",0.00098
same,solubility (mole fraction),"in THF, 288.15 K",0.00108
same,solubility (mole fraction),"in THF, 293.15 K",0.00119
same,solubility (mole fraction),"in THF, 298.15 K",0.00133
same,solubility (mole fraction),"in THF, 303.15 K",0.00147
same,solubility (mole fraction),"in THF, 308.15 K",0.00162
same,solubility (mole fraction),"in THF, 313.15 K",0.0018
same,solubility (mole fraction),"in THF, 318.15 K",0.002
same,solubility (mole fraction),"in THF, 323.15 K",0.00221
same,solubility (mole fraction),"in acetone, 278.15 K",0.0121
same,solubility (mole fraction),"in acetone, 283.15 K",0.0148
same,solubility (mole fraction),"in acetone, 288.15 K",0.018
same,solubility (mole fraction),"in acetone, 293.15 K",0.0218
same,solubility (mole fraction),"in acetone, 298.15 K",0.0263
same,solubility (mole fraction),"in acetone, 303.15 K",0.0321
same,solubility (mole fraction),"in acetone, 308.15 K",0.0389
same,solubility (mole fraction),"in acetone, 313.15 K",0.0474
same,solubility (mole fraction),"in acetone, 318.15 K",0.0574
same,solubility (mole fraction),"in acetone, 323.15 K",0.0695
same,solubility (mole fraction),"in ethanol, 278.15 K",0.062
same,solubility (mole fraction),"in ethanol, 283.15 K",0.07
same,solubility (mole fraction),"in ethanol, 288.15 K",0.0786
same,solubility (mole fraction),"in ethanol, 293.15 K",0.0882
same,solubility (mole fraction),"in ethanol, 298.15 K",0.0987
same,solubility (mole fraction),"in ethanol, 303.15 K",0.111
same,solubility (mole fraction),"in ethanol, 308.15 K",0.124
same,solubility (mole fraction),"in ethanol, 313.15 K",0.14
same,solubility (mole fraction),"in ethanol, 318.15 K",0.157
same,solubility (mole fraction),"in ethanol, 323.15 K",0.175
same,solubility (mole fraction),"in ethyl acetate, 278.15 K",0.00638
same,solubility (mole fraction),"in ethyl acetate, 283.15 K",0.00791
same,solubility (mole fraction),"in ethyl acetate, 288.15 K",0.00983
same,solubility (mole fraction),"in ethyl acetate, 293.15 K",0.012
same,solubility (mole fraction),"in ethyl acetate, 298.15 K",0.0146
same,solubility (mole fraction),"in ethyl acetate, 303.15 K",0.0181
same,solubility (mole fraction),"in ethyl acetate, 308.15 K",0.0223
same,solubility (mole fraction),"in ethyl acetate, 313.15 K",0.0276
same,solubility (mole fraction),"in ethyl acetate, 318.15 K",0.0338
same,solubility (mole fraction),"in ethyl acetate, 323.15 K",0.0415
same,solubility (mole fraction),"in methanol, 278.15 K",0.0804
same,solubility (mole fraction),"in methanol, 283.15 K",0.0905
same,solubility (mole fraction),"in methanol, 288.15 K",0.103
same,solubility (mole fraction),"in methanol, 293.15 K",0.116
same,solubility (mole fraction),"in methanol, 298.15 K",0.131
same,solubility (mole fraction),"in methanol, 303.15 K",0.147
same,solubility (mole fraction),"in methanol, 308.15 K",0.166
same,solubility (mole fraction),"in methanol, 313.15 K",0.188
same,solubility (mole fraction),"in methanol, 318.15 K",0.212
same,solubility (mole fraction),"in methanol, 323.15 K",0.238
same,solubility (mole fraction),"in n-hexane, 278.15 K",0.00084
same,solubility (mole fraction),"in n-hexane, 283.15 K",0.00095
same,solubility (mole fraction),"in n-hexane, 288.15 K",0.00108
same,solubility (mole fraction),"in n-hexane, 293.15 K",0.00122
same,solubility (mole fraction),"in n-hexane, 298.15 K",0.00137
same,solubility (mole fraction),"in n-hexane, 303.15 K",0.00155
same,solubility (mole fraction),"in n-hexane, 308.15 K",0.00175
same,solubility (mole fraction),"in n-hexane, 313.15 K",0.00198
same,solubility (mole fraction),"in n-hexane, 318.15 K",0.00224
same,solubility (mole fraction),"in n-hexane, 323.15 K",0.00253
same,solubility (mole fraction),"in water, 278.15 K",0.0296
same,solubility (mole fraction),"in water, 283.15 K",0.0339
same,solubility (mole fraction),"in water, 288.15 K",0.039
same,solubility (mole fraction),"in water, 293.15 K",0.045
same,solubility (mole fraction),"in water, 298.15 K",0.0514
same,solubility (mole fraction),"in water, 303.15 K",0.059
same,solubility (mole fraction),"in water, 308.15 K",0.0674
same,solubility (mole fraction),"in water, 313.15 K",0.0774
same,solubility (mole fraction),"in water, 318.15 K",0.0888
same,solubility (mole fraction),"in water, 323.15 K",0.102
